In one series the test system is Escherichia coli. The series can be described thus: Antimicrobial activity against Escherichia coli ATCC 25922 assessed as reduction in microbial growth. The class given is functional.
The subject of a further series is Staphylococcus aureus. In words: Antimicrobial activity against Staphylococcus aureus ATCC 29213 assessed as reduction in microbial growth. It counts as functional.
Another series deals with Candida albicans. The series can be described thus: Antimicrobial activity against Candida albicans ATCC 90029 assessed as reduction in microbial growth. The class given is functional.
Series [1] can be described thus: Hemolytic activity against human RBC assessed as concentration required to cause 10% hemolysis up to 256 uM relative to control. The conditions noted are these: erythrocyte. It counts as toxicity, cell-based.
Series [2] relates to HEK293. In words: Cytotoxicity against human HEK293 cells assessed as reduction in cell viability up to 256 uM. The class given is toxicity, cell-based. Conditions: hek293, 256 µM.
Series [3] in a line: Stability in human serum assessed as compound remaining measured after 3 hr by RP-HPLC analysis. It counts as ADME, cell-free. Conditions: read-out: Stability.
For series [4], the system named is HEK293. In words: Cytotoxicity against human HEK293 cells assessed as reduction in cell viability at 1 to 128 uM relative to control. The class given is toxicity, cell-based. Conditions: hek293, 128 µM, dose 1-128 µM.
Series [5] relates to HEK293. In words: Cytotoxicity against human HEK293 cells assessed as reduction in cell viability at 128 uM relative to control. The class given is toxicity, cell-based. The conditions noted are these: hek293, 128 µM.
Series [6] in a line: Hemolytic activity in human RBC assessed as hemolysis at 2 uM relative to control. The class given is toxicity, cell-based, Erythrocyte. Conditions: red blood cells, read-out: Activity.
Series [7] can be described thus: Stability in human serum assessed as compound remaining measured after 1 hr by RP-HPLC analysis. It counts as ADME, cell-free. The conditions noted are these: read-out: Stability.
Series [8] is described as follows: Hemolytic activity in human RBC assessed as hemolysis at 128 uM relative to control. The class given is toxicity, cell-based, Erythrocyte. The conditions noted are these: red blood cells, read-out: Activity.

These results are taken from ChEMBL document CHEMBL5252568, “Rational design of HJH antimicrobial peptides to improve antimicrobial activity” (Bioorg Med Chem Lett, 2023).

For orientation: MIC means the lowest concentration that inhibits growth of the organism. Consider H-KLLKRKLLVLLR-OH, for which the values for the MIC with Escherichia coli, in the series with Staphylococcus aureus and with Candida albicans were 12.5 µg/mL, 3 µg/mL and > 200 µg/mL, respectively.

Consider H-KLLKHKLLVTLA-OH, for which the MIC with Escherichia coli is 50 µg/mL; with Staphylococcus aureus it was 50 µg/mL; in the series with Candida albicans, > 200 µg/mL. In addition, the Activity result (in series [1]; in the series on HEK293 [2]) was “Non-Toxic” each time. Further, in series [3], the remaining at 3 h was < 9%.

With `OC(Cn1cncn1)(Cn1cncn1)c1ccc(F)cc1F` [FLUCONAZOLE], the minimal inhibitory concentration (MIC) with Candida albicans worked out at 12.5 µg/mL.

For `C[C@@H]1[C@H](O)[C@@H](C)/C=C/C=C/C=C/C=C/C=C/C=C/C=C/[C@H](O[C@@H]2O[C@H](C)[C@@H](O)[C@H](N)[C@@H]2O)C[C@@H]2O[C@](O)(C[C@@H](O)C[C@@H](O)[C@H](O)CC[C@@H](O)C[C@@H](O)CC(=O)O[C@H]1C)C[C@H](O)[C@H]2C(=O)O` [AMPHOTERICIN B], the MIC with Escherichia coli and in the series with Staphylococcus aureus was 0.4 µg/mL in each case.

Turning to H-KLLKRKLLVTLR-OH, the results for the MIC in the series with Escherichia coli, in the series with Staphylococcus aureus and in the series with Candida albicans were 25 µg/mL, 6.25 µg/mL and > 200 µg/mL, respectively. In addition, the Activity entry (in [1]; in the series on HEK293 [2]) was “Non-Toxic” each time.

Take H-KLLKHKLLVTLR-OH: the MIC with Escherichia coli is 50 µg/mL; in the series on Staphylococcus aureus, 12.5 µg/mL; in the series with Candida albicans it was > 200 µg/mL. Further, the Activity entry (in series [1]; in the series with HEK293 [2]) was “Non-Toxic” each time.

With H-KKLLKKLLRLLKVLLR-OH, the results for the MIC with Escherichia coli, in the series with Staphylococcus aureus and with Candida albicans were 25 µg/mL, 0.75 µg/mL and 3 µg/mL, respectively. Besides, the Activity entry in the series with HEK293 [4] is recorded as “Toxic”; in the series on HEK293 [5], 11%. Also, in series [6], the hemolysis at 2 µM is 90%. In series [7], the remaining at 1 h was determined as 60%. Besides, the remaining at 3 h in series [3] is < 9%.

For the compound H-KKLLRLLKVLLR-OH, the MIC was found to be 1.5 µg/mL with Escherichia coli, 1.5 µg/mL with Staphylococcus aureus and 50 µg/mL in the series on Candida albicans. Moreover, the Activity entry in the series on HEK293 [4] is listed as “Toxic”; in the series on HEK293 [5], 50%. Moreover, the hemolysis at 128 µM in [8] stood at 35%. Moreover, the remaining at 1 h in series [7] is 60%. In series [3], the remaining at 3 h is < 9%.
